Measurements from US20120181173A1, “ELECT[…] FOR THE DETECTION OF ANALYTES IN LIQUID MEDIA” (priority 2009, published 2012).
Values joined by “and” are separate entries in the source; they are usually repeats but may differ in a detail not shown here. Equal entries are not always repeated.

Experiments:
[1] = molecular target: T1, acetylcholinesterase enzyme (Electrophorus electricus, UniProt O42275); test: Inhibition of acetylcholinesterase by chlorpyrifos oxon in the Example 2 sensor (graphite; PEDOT and PVA conductive gel, d2); settings: Example 2 sensor (d2), 100 mV
T1 sequence (O42275 24-633): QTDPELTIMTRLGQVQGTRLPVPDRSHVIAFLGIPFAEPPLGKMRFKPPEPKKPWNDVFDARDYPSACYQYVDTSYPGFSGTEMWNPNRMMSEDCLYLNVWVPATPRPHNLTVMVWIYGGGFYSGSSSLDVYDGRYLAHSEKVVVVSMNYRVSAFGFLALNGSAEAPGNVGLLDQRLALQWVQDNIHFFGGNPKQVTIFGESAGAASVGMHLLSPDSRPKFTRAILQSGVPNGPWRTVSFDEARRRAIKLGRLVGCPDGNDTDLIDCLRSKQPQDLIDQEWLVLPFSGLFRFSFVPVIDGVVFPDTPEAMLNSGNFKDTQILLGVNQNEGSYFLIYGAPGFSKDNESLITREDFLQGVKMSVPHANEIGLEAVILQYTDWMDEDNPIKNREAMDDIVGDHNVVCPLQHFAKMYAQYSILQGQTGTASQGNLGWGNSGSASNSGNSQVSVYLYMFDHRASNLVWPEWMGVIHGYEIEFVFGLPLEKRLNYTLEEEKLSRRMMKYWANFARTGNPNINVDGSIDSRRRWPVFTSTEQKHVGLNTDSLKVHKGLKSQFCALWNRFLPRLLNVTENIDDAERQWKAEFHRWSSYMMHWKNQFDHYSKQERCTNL

[2] = molecular target: T1, acetylcholinesterase enzyme; test: Inhibition of acetylcholinesterase by chlorpyrifos oxon in the Example 1 sensor (graphite; PEDOT layer with PVA layer, d1); settings: Example 1 sensor (d1), 100 mV
[3] = molecular target: T1, acetylcholinesterase enzyme; test: Inhibition of acetylcholinesterase by chlorpyrifos oxon in the Example 4 sensor (silver intermediate layer; graphite; PEDOT layer with PVA layer, d1); settings: Example 4 sensor (silver + d1), 100 mV
[4] = molecular target: T1, acetylcholinesterase enzyme; test: Inhibition of acetylcholinesterase by chlorpyrifos oxon in the Example 3 sensor (graphite; cobalt phthalocyanine intermediate layer; PEDOT and PVA, d2); settings: Example 3 sensor (CoPh + d2), 100 mV

chlorpyrifos oxon
% of inhibition in the presence of pesticide ([1]; chlorpyrifos oxon 1 · 10^−9 M): 41.71%
% of inhibition in the presence of pesticide ([1]; chlorpyrifos oxon 3 · 10^−9 M): 61.15%
% of inhibition in the presence of pesticide ([1]; chlorpyrifos oxon 3 · 10^−10 M): 10% and 10.09%
% of inhibition in the presence of pesticide ([1]; chlorpyrifos oxon 4 · 10^−10 M): 15.31%
% of inhibition in the presence of pesticide ([1]; chlorpyrifos oxon 5 · 10^−10 M): 22.19%
% of inhibition in the presence of pesticide ([1]; chlorpyrifos oxon 9 · 10^−10 M): 39.75%
% of inhibition in the presence of pesticide ([2]; chlorpyrifos oxon 1 · 10^−9 M): 46.82%
% of inhibition in the presence of pesticide ([2]; chlorpyrifos oxon 2 · 10^−10 M): 7% and 7.21%
% of inhibition in the presence of pesticide ([2]; chlorpyrifos oxon 3 · 10^−9 M): 69.20%
% of inhibition in the presence of pesticide ([2]; chlorpyrifos oxon 3 · 10^−10 M): 16.11%
% of inhibition in the presence of pesticide ([2]; chlorpyrifos oxon 4 · 10^−10 M): 22.41%
% of inhibition in the presence of pesticide ([2]; chlorpyrifos oxon 5 · 10^−10 M): 27.09%
% of inhibition in the presence of pesticide ([2]; chlorpyrifos oxon 9 · 10^−10 M): 44.54%
% of inhibition in the presence of pesticide ([3]; chlorpyrifos oxon 1 · 10^−9 M): 49.50%
% of inhibition in the presence of pesticide ([3]; chlorpyrifos oxon 2 · 10^−10 M): 8% and 8.28%
% of inhibition in the presence of pesticide ([3]; chlorpyrifos oxon 3 · 10^−9 M): 72.23%
% of inhibition in the presence of pesticide ([3]; chlorpyrifos oxon 3 · 10^−10 M): 19.14%
% of inhibition in the presence of pesticide ([3]; chlorpyrifos oxon 4 · 10^−10 M): 24.51%
% of inhibition in the presence of pesticide ([3]; chlorpyrifos oxon 5 · 10^−10 M): 30.10%
% of inhibition in the presence of pesticide ([3]; chlorpyrifos oxon 9 · 10^−10 M): 47.55%
% of inhibition in the presence of pesticide ([4]; chlorpyrifos oxon 1 · 10^−9 M): 52.36%
% of inhibition in the presence of pesticide ([4]; chlorpyrifos oxon 2 · 10^−10 M): 9.82%
% of inhibition in the presence of pesticide ([4]; chlorpyrifos oxon 3 · 10^−9 M): 74.80%
% of inhibition in the presence of pesticide ([4]; chlorpyrifos oxon 3 · 10^−10 M): 10.70%
% of inhibition in the presence of pesticide ([4]; chlorpyrifos oxon 4 · 10^−10 M): 32.51%
% of inhibition in the presence of pesticide ([4]; chlorpyrifos oxon 5 · 10^−10 M): 31.46%
% of inhibition in the presence of pesticide ([4]; chlorpyrifos oxon 9 · 10^−10 M): 49.18%
